Measurements from article PMC3025038 (Organic & biomolecular chemistry, 2009).

Assays:
[1] = mice; liver, spleen, kidney bone marrow, or brain tissue; cited from earlier work
[2] = molecular target: T1, KOP receptors (Homo sapiens, UniProt P41145); test: biochemical; format: biochemical; conditions: for Emax: read-out: KOP Emax
[3] = molecular target: T1, KOP receptors; format: binding

T1 sequence (P41145 whole entry): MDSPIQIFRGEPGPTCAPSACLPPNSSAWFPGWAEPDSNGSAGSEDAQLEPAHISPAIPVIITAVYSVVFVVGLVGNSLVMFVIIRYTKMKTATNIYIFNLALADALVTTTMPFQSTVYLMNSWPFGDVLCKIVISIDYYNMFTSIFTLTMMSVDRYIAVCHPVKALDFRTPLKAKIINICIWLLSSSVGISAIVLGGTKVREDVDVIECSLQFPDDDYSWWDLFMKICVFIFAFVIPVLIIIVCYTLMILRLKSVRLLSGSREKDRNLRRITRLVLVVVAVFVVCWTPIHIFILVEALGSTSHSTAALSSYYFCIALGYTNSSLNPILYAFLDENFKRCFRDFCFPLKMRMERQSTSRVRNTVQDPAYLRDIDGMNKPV

Row | Compound | histological differences versus control animals [1] | fold less active than 1 as agonists [2] | functional character at KOPs (in words) [2] | Emax [2] [%] | fold increase in affinity for KOP receptors [3] [fold]
1 | COC(=O)[C@@H]1C[C@H](OC(C)=O)C(=O)[C@H]2[C@@]1(C)CC[C@H]1C(=O)O[C@H](c3ccoc3)C[C@]21C [Compound 1, salvinorin A] | no histological differences |  |  |  | 
2 | COC(=O)[C@@H]1C[C@H](OC(C)=O)C(=O)[C@H]2[C@@]1(C)CC[C@H]1C(=O)O[C@H](C(=O)N3CCCCC3)C[C@]21C [Compound 21, (2S,4aR,6aR,7R,9S,10aS,10bR)-methyl 9-acetoxy-6a,10b-dimethyl-4,10-dioxo-2-(piperidine-1-carbonyl)dodecahydro-1H-benzo[f]isochromene-7-carboxylate] |  | approximately 100 fold | selective partial agonists | 85 ± 13 | 9
3 | COC(=O)[C@@H]1C[C@H](OC(C)=O)C(=O)[C@H]2[C@@]1(C)CC[C@H]1C(=O)O[C@H](C(=O)N3CCSCC3)C[C@]21C [Compound 23, (2S,4aR,6aR,7R,9S,10aS,10bR)-methyl 9-acetoxy-6a,10b-dimethyl-4,10-dioxo-2-(thiomorpholine-4-carbonyl)dodecahydro-1H-benzo[f]isochromene-7-carboxylate] |  | approximately 100 fold | selective partial agonists | 57 ± 6 | 
